From US12239661B2, “Methods and compositions for treating undesired implanted tissue filler” (priority 2019, dated 2025)

Key:
[1] = Electron microscopy (SEM) of filler particles isolated from test sites (Example 1); settings: for particle degradation (change in particle size or surfaces) by EM / 25-45 μm / <25 μm / >45 μm / D-ratio: day 7; for Mean diameter: filler particles by EM, seven days after filler injection; for 25-45 μm / <25 μm / >45 μm: particle size distribution by EM; for D-ratio: shape index, 1=round, EM
Procedure: EM analysis is used, for example, to analyze morphology and the particle size distribution of Calcium Hydroxyapatite (CaHA) particles in tissue integrated particles. […] The biopsy material underwent an enzymatic digestion with protease (Trypsin without EDTA, for […], at 37° C.) after fixation in 10% neutral buffered formalin (NBF). Digested sample was centrifuged, and microscopy samples of the supernatant as well as the pellet were prepared and subjected to EM analysis at room temperature.
Samples were analyzed using a Scanning Electron Microscope (SEM) (Phenom Pure G3, ThermoFisher, with Phenom Pro Suite application system, ImageJ (version 1.51j8) software and OriginPro 2018G (64-bit) SR1 b9.5.1.195 software for analysis and data processing). To evaluate the changes in CaHA microparticle characteristics the samples were analyzed with the Scanning Electron Microscopy (SEM) and evaluated for morphology as well as for the size and shape of the material. Statistical analysis of particle size distribution (PSD) would show changes of the material.
SEM images were taken from three fractions per sample to determine the particle- and volume-weighted size distributions. Up to 400 SEM images per fraction were taken at a magnification of ×500 and further processed by automated image analyzing software ImageJ (version 1.51j8). Image processing took place for every fraction image to determine selected parameters. e.g., Feret diameter and aspect ratio (D-ratio).

[2] = Semi-quantitative histopathologic analysis of injection sites (Example 1); settings: for AM Degradation / Cell or Tissue Degeneration / Encapsulation / Fatty Infiltrate / Fibrin / Fibroblasts / Fibrosis / Giant Cells / Hemorrhage / Lymphocytes / Macrophages / Necrosis / Neovascularization / Plasma Cells / Polymorphonuclear Cells / Tissue Ingrowth / Tissue Integration: mean score, day 7
Procedure: After complete fixation in 10% NBF and micro-CT analysis, the 30 test sites and the TO site, were cut into five blocks. The blocks were decalcified for 48 hours with formic acid and then dehydrated in alcohol solutions of increasing concentration, cleared in xylene and embedded in paraffin. […] Finally, the blocks were placed in HCl for 15 min and the blocks could then be cut to obtain slides for analysis.
The section was stained with safranin-hematoxylin-cosin (SHE). The same procedure was used for the preparation of the TO site used for structural characterization and evaluation of the degradation.
Qualitative and semi-quantitative histopathologic evaluation of the local tissue effects and the inflammatory response at injection sites was conducted according using standard methods.
Evaluation of local tissue effects was based on the qualitative and semi-quantitative histopathologic evaluation: mean score comparison of the semi-quantitative parameters and comparison of the qualitative histopathologic findings.

[3] = Procedure: A total of 10 CT-scans were performed at 30 min, 1 h 15 min, 1 h 30 min, 1 h 45 min, 2 h, 3 h, 4 h, 8 h, 1 day (24 h) and 7 days after injections of the dermal filler.
The X-ray computed tomography (CT) acquisitions were performed with the Computed Tomography Scanner BrightSpeed 16 (General Electric). In order to measure the volume, the mean density and visualize the 3D (Three-dimensional) shape of the dermal fillers SC injected, in vivo CT-scans were performed 1 h 15 (±5 min), 1 h 30 (±10 min), 1 h 45 (±10 min), 2 h (±10 min), 3 h (±15 min), 4 h (±15 min), 8 h (±30 min), 24 h (Day 1+1 h) and 7 days after the test item injections.
For each CT-scan, the animal was positioned in dorsal recumbency (ventral images) and acquisitions were centered on the injection sites. The parameters of the CT-scan are described in Table 4.
The CT acquisitions were analyzed with Avizo version 9.2.0 software. […] To achieve this goal, the evolution of the following parameters was observed over time: • the volume of each nodule, • the mean density of each nodule, and • the 3D shape of each nodule by visualization on the 3D model of each nodule at each time point. Segmentation
An image segmentation was performed on each CT acquisition using standard reconstruction. First, a manual pre-segmentation was performed around each nodule in order to roughly isolate the voxels corresponding to dermal filler. An interpolation procedure was performed to obtain a contour for each slice and define a Region of Interest (ROI). Second, an automatic segmentation was applied on the ROI previously defined using a global grey level thresholding procedure. The relevant threshold allowing the isolation of the dermal filler products was defined on the basis of the Hounsfield Unit (HU) histogram, following the Otsu method to accurately define the ROI. […] Then, a 3D model of these selected voxels was obtained allowing calculation of the total volume (in mm^3) of each nodule of non-degraded dermal filler.
The volume (in mm^3) of the ROI corresponding to each nodule of dermal filler and the mean density (in HU) of each nodule were calculated at each time point.
In order to assess the evolution over time of the elimination of SC-injected dermal filler, the mean volume±standard deviation (SD) and the average of mean density±SD were calculated for each dermal filler injection of the right and left flank separately at each different time points. The evolution of the mean volumes, the mean volume variations and the average of the mean densities of each dermal filler were calculated.

[4] = day 7 after injection; 1.5 mL into 0.5 mL filler site; vs untreated filler
[5] = Quantitative histomorphometric analysis of injection sites (Example 1); assay type: in vivo, Swine (Sus scrofa domesticus); settings: injected area, day 7, mean
Procedure: Histomorphometric analysis was conducted on the 31 sections. Each section was analyzed with a color image analyzing system (Tribvn, France, CALOPIX version 3.2.0) to perform a semi-automatic analysis.
A Test Area was defined in a limited area where the print of the granules of the associated material was clear. This area was defined to evaluate the average area and diameter of each microsphere. A Test Area had to contain between 100 and 300 clearly defined granules to be considered as representative. FIG. 2 illustrates a Test Area in a section.
The injected area was the entire area where material was detected on the slide. The Test Area was part of the injected area.
Quantitative measurements were performed either in the Test Area or in the entire injected area. […]
Implant Area (μm^2) (Test Area): the surface area of granules measured in the Test Area (including any Lacunae Area).
Implant Area (mm^2) (Injected Area): the surface of granules was measured in the entire injected area (including any Lacunae Area). […]
Lacunae Area (mm^2) (Injected Area): the surface of the “Lacunae” Area was measured as defined by the optically empty spaces corresponding to merged granules (no distinct limits between several granules).

[6] = In vivo CT of filler nodule volume, density and 3D shape after test solutions 0-8 (Example 3)
Procedure: One hour after filler injections (T=1 h), 1.5 mL of selected solutions (Table 5, solutions 0-8, test items, solution 0 is normal saline and not hyperosmotic) were injected each into 9 dermal filler nodules in the right flank (ventral area).
A total of 7 CT-scans were performed at 1 h 15, 2 h, 4 h, 1 day (24 h), 3, 7 and 14 days after injection of the dermal filler. The clinical state of each animal is assessed once a week by body weight measurement and clinical observations.
The 10 SC injections of dermal filler on Day 0 were performed in the ventral area, (five nodules on each flank of the ventral area) for each pig. For each SC nodule, a theoretical volume of 500 μl was administered. One hour (±5 min) after injection of dermal filler, SC injection of the different solutions (prepared the day before) were performed into nine (9) nodules of dermal. For each SC nodule, a theoretical volume of 1.5 mL of test solution was administered.
The X-ray computed tomography acquisitions were performed with the Computed Tomography Scanner BrightSpeed 16 (General Electric). In order to measure the volume and the mean density and to visualize the 3D shape of the dermal filler (Radiesse® filler with or without test solution) injected, in vivo CT-scans were performed on Day 0: 1 h 15 (±10 min), 2 h (±15 min) and 4 h (±20 min), on Day 1 (24 h+1 h), Day 3, Day 7 and Day 14.
During CT acquisition on Day 0, the pigs received an IM injection of anesthesia. The animals were maintained under anesthesia until the CT acquisition at T=2 h (2 h after dermal filler injection session). Between these CT acquisitions, the animals were under surveillance in the recovery room on a heating mat with fluidotherapy. At the end of the CT acquisition at T=2 h, the pigs received a tattoo around each injected site. During the CT acquisitions at T=4 h and on Days 1, 3, 7 and 14, pigs received an IM injection of anesthesia. For the CT-scans, animals were positioned in dorsal recumbency and acquisitions were centered on the injection sites. The parameters of the CT-scan are described in Table 5.
The CT acquisition was analyzed with the software Avizo version 9.2.0. The objective of this analysis was to assess the degradation over time of the dermal filler injected by SC route after injection of different test solutions.
An image segmentation processing was performed on each CT acquisition. First, a manual pre-segmentation was performed around each nodule in order to roughly isolate the voxels corresponding to dermal filler product, which defined a Region of Interest (ROI). Second, an automatic segmentation was applied on the previously defined ROI using a global grey level thresholding procedure.
On day 0, a farm pig received ten (10) SC injections of Radiesse® dermal filler 0.5 mL (ventral area) (10 nodules in total). One hour after filler injections (T=1 h), 1.5 mL of one of eight test hyperosmotic solutions (1-8 solutions, Table 5) was injected at an injection site. One injection site was untreated and one injection site was treated with normal saline (0.9% wt/v NaCl).

[7] = Example 3, mean, listed as Normal Saline (sol 0)

SMILES | particle degradation (change in particle size or surfaces) by EM [1] | Mean diameter [1] [μm] | 25-45 μm [1] [wt %] | <25 μm [1] [wt %] | >45 μm [1] [wt %] | D-ratio [1] | AM Degradation [2] | Cell or Tissue Degeneration [2] | Encapsulation [2] | Fatty Infiltrate [2] | Fibrin [2] | Fibroblasts [2] | Fibrosis [2] | Giant Cells [2] | Hemorrhage [2] | Lymphocytes [2] | Macrophages [2] | Necrosis [2] | Neovascularization [2] | Plasma Cells [2] | further results
O=S([O-])([O-])=S.[Na+].[Na+] [STS, sodium thiosulfate] | no indication of particle degradation | 29.2 | 93.1 | 1.7 | 5.2 | 0.8 | 1.8 | 0.0 | 0.0 | 0.0 | 2.4 | 2.0 | 0.0 | 1.4 | 2.1 | 1.1 | 2.0 | 1.2 | 1.0 | 0.0 | appearance of filler in histology slices ([2]; SHE stain, vs Saline treatment or untreated filler): more dispersed (diluted) appearance of filler; Polymorphonuclear Cells [2]: 1.1; Tissue Ingrowth [2]: 2.5; Tissue Integration [2]: 2.5; fibrin content, hemorrhage and necrosis by histopathology ([2]; seven days): increased fibrin content, hemorrhage and necrosis; inflammation by histopathology ([2]; seven days): decreased inflammation (macrophages, giant cells); amount of filler by histopathology ([2]; seven days, vs Saline treatment and untreated injections): decreased amount of filler; Radiesse+STS high volume (HU 250-infinity) vs untreated filler by CT ([3]; 90 minutes after injection): very modest temporary increase; Radiesse+STS high density vs untreated filler by CT ([3]; day 7): strong trend for a decrease; filler volume×density/1000 (filler content) in Radiesse+STS high fraction ([3]; day 7): significant decrease of filler; highest HU values of voxel frequency trace ([3]; day 7, untreated filler 450-570 HU): 250-400 HU; number of voxels at 750 HU ([3]; day 7, untreated filler c.a. 70): ~40 voxels; Radiesse-STS (low) volume (0 to 250 HU) by CT ([3]; diluted/dispersed fraction over time): increases with the time between 120 and 240 minutes; effect on dermal filler volume as measured by micro-CT [4]: ≤ 10%
[Cl-].[Na+] [sol 0, Sodium chloride] | no indication of particle degradation | 28.8 | 93.2 | 1.4 | 5.4 | 0.8 | 1.0 | 0.0 | 0.0 | 0.0 | 1.7 | 2.0 | 0.0 | 2.0 | 1.1 | 1.3 | 2.4 | 0.1 | 1.0 | 0.0 | Polymorphonuclear Cells [2]: 1.0; Tissue Ingrowth [2]: 2.5; Tissue Integration [2]: 2.5; Implant area [5]: 19.2 mm^2; Change in Volume as percent of Injected Volume, Day 14/15 ([6]; Example 3 (Day 14), mean, listed as Normal Saline (sol 0)): 187.72%; Change in Volume as percent of Injected Volume, Day 0 + 1 h 15 ([6]; Example 3, mean, 1.5 mL solution into 500 μl nodule, listed as Normal Saline (sol 0)): 155.02%; Change in Volume as percent of Injected Volume, Day 0 + 2 h [6, 7]: 159.42%; Change in Volume as percent of Injected Volume, Day 0 + 4 h [6, 7]: 182.97%; Change in Volume as percent of Injected Volume, Day 1 [6, 7]: 209.66%; Change in Volume as percent of Injected Volume, Day 3 [6, 7]: 215.48%; Change in Volume as percent of Injected Volume, Day 7 [6, 7]: 212.85%; effect on volume at the filler injection site ([6]; after 7 and 14 days, vs untreated, listed as normal saline): does not produce significant decreased volume
